Assay results reported in the CheMixHub ionic liquid set.

Experiment: xn = mol fraction of the nth substance listed
Conditions: 100 kPa

CC(C)C[C@H](N)C(=O)O + CCCC[n+]1ccn(C)c1.F[B-](F)(F)F + O
viscosity [mPa·s]
Conditions	293.15 K	298.15 K	303.15 K
x1 = 0.0002738, x2 = 0	1.013	0.9	0.807
x1 = 0.0002786, x2 = 0.0003728	1.044	0.93	0.848
x1 = 0.0002797, x2 = 0.0007255	1.076	0.964	0.881
x1 = 0.0002864, x2 = 0.001099	1.109	0.998	0.919
x1 = 0.0004577, x2 = 0.0007254	1.081	0.97	0.887
x1 = 0.0004593, x2 = 0	1.017	0.905	0.811
x1 = 0.0004597, x2 = 0.001099	1.115	1.004	0.925
x1 = 0.0004649, x2 = 0.0003727	1.049	0.935	0.852
x1 = 0.0006294, x2 = 0.0003726	1.054	0.94	0.857
x1 = 0.0006321, x2 = 0	1.022	0.909	0.815
x1 = 0.0006374, x2 = 0.0007252	1.086	0.975	0.892
x1 = 0.0006474, x2 = 0.001099	1.121	1.01	0.931
x1 = 0.0008066, x2 = 0	1.026	0.913	0.819
x1 = 0.0008173, x2 = 0.0003726	1.059	0.945	0.862
x1 = 0.0008279, x2 = 0.0007251	1.092	0.98	0.897
x1 = 0.0008314, x2 = 0.001099	1.127	1.016	0.936
x1 = 0.0009955, x2 = 0	1.031	0.917	0.823
x1 = 0.001003, x2 = 0.0003725	1.064	0.949	0.866
x1 = 0.001004, x2 = 0.000725	1.097	0.985	0.902
x1 = 0.00101, x2 = 0.001099	1.132	1.021	0.941
x1 = 0.001168, x2 = 0	1.035	0.921	0.826
x1 = 0.001172, x2 = 0.0007248	1.102	0.99	0.906
x1 = 0.001177, x2 = 0.0003724	1.069	0.954	0.871
x1 = 0.001183, x2 = 0.001099	1.138	1.026	0.946
x1 = 0.00135, x2 = 0.0003724	1.074	0.959	0.875
x1 = 0.001357, x2 = 0	1.04	0.925	0.83
x1 = 0.001369, x2 = 0.001098	1.144	1.031	0.951
x1 = 0.00137, x2 = 0.0007247	1.108	0.995	0.911
x1 = 0.001535, x2 = 0	1.044	0.929	0.834
x1 = 0.001541, x2 = 0.0003723	1.08	0.963	0.88
x1 = 0.001554, x2 = 0.001098	1.15	1.037	0.957
x1 = 0.001557, x2 = 0.0007246	1.113	0.999	0.915
x1 = 0.00172, x2 = 0	1.048	0.933	0.838
x1 = 0.00172, x2 = 0.0003722	1.085	0.968	0.884
x1 = 0.00172, x2 = 0.0007244	1.117	1.003	0.92
x1 = 0.001727, x2 = 0.001098	1.156	1.042	0.962
